Measurements as given in ChEMBL document CHEMBL5143522, “Discovery of novel 6-hydroxybenzothiazole urea derivatives as dual Dyrk1A/α-synuclein aggregation inhibitors with neuroprotective effects” (Eur J Med Chem, 2022).
One block for each compound: values may come before it. Calls of active or inactive are those of the source. The calls are words filed in the database; no cut-off is given here.

How the values were obtained:
[1] = target: Dual specificity tyrosine-phosphorylation-regulated kinase 1B (Homo sapiens) (UniProt Q9Y463); assay: Inhibition of human recombinant DYRK1B at 1 uM using KKISGRLSPIMTEQ as substrate incubated in presence of ATP relative to control
[2] = Permeability of the compound in PBS/EtOH buffer (7:3) incubated for 16 hrs by PAMPA-BBB assay
SH-SY5Y [3] = assay: Neuroprotective activity against alpha-syn induced cytotoxicity against human SH-SY5Y cells assessed as increase in cell viability at 10 uM by MTT assay; type: functional, cell-based
SH-SY5Y [4] = assay: Neuroprotective activity against 6-OHDA induced cytotoxicity against human SH-SY5Y cells assessed as increase in cell viability at 10 uM by MTT assay; type: functional, cell-based
[5] = target: T1, Dual specificity tyrosine-phosphorylation-regulated kinase 1A (Homo sapiens, UniProt Q13627); assay: Inhibition of human N-terminal His6-tagged DYRK1A expressed in Escherichia coli BL21 (DE3) using KKISGRLSPIMTEQ as substrate incubated in presence of ATP
[6] = target: T1, Dual specificity tyrosine-phosphorylation-regulated kinase 1A; conditions: dose 250.0 nM
[7] = target: T1, Dual specificity tyrosine-phosphorylation-regulated kinase 1A; assay: Inhibition of DYRK1A in human HeLa cells transiently expressing GFP-SF3B1 fusion protein assessed as reduction in SF3B1 phosphorylation incubated for 24 hrs by immunoblot analysis; type: cell-based
[8] = target: Casein kinase I isoform delta (Homo sapiens) (UniProt P48730); assay: Inhibition of CSNK1D (unknown origin) at 1 uM incubated in presence of ATP by Selectscreen kinase assay relative to control
[9] = target: T1, Dual specificity tyrosine-phosphorylation-regulated kinase 1A; assay: Binding affinity to C-terminal HiBiT-tagged human DYRK1A (28 to 499 residues) stably expressed in HEK293 cells assessed as thermal stability by measuring increase in DYRK1A in soluble fraction at 10 to 30 uM incubated for 3.5 mins by ITDRF-CETSA analysis; type: cell-based; conditions: dose 10-30 µM
[10] = target: Cyclin-dependent kinase 5/CDK5 activator 1 (Homo sapiens) (UniProt Q00535+Q15078); assay: Inhibition of CDK5/p25 (unknown origin) at 1 uM by Selectscreen kinase assay relative to control; type: protein-complex assay
[11] = target: Glycogen synthase kinase-3 beta (Homo sapiens) (UniProt P49841); assay: Inhibition of GSK3beta (unknown origin) at 1 uM incubated in presence of ATP by Selectscreen kinase assay relative to control
[12] = target: T2, Dual specificity tyrosine-phosphorylation-regulated kinase 2 (Homo sapiens) (UniProt Q92630); assay: Inhibition of DYRK2 (unknown origin) at 1 uM incubated in presence of ATP by Selectscreen kinase assay relative to control
T2 sequence (whole entry): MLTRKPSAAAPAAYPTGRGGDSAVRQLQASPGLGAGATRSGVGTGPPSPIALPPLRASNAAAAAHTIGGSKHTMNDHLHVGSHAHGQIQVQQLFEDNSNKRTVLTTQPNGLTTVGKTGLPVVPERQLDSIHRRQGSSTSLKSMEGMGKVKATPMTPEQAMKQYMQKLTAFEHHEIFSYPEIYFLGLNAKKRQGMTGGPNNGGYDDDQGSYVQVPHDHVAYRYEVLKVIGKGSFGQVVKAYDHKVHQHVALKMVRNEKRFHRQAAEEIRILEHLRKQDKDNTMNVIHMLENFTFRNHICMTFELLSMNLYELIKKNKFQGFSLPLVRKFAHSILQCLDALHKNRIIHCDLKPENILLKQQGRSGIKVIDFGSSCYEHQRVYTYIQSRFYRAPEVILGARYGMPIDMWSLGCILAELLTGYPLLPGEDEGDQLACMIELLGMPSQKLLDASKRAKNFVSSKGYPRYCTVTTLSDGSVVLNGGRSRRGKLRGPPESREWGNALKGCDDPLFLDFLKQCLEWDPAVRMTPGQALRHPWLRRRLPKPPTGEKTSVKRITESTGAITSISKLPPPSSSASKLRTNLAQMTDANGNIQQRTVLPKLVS

[13] = target: T3, Serine/threonine-protein kinase 17A (Homo sapiens) (UniProt Q9UEE5); assay: Inhibition of STK17A (unknown origin) at 1 uM incubated in presence of ATP by Selectscreen kinase assay relative to control
T3 sequence (whole entry): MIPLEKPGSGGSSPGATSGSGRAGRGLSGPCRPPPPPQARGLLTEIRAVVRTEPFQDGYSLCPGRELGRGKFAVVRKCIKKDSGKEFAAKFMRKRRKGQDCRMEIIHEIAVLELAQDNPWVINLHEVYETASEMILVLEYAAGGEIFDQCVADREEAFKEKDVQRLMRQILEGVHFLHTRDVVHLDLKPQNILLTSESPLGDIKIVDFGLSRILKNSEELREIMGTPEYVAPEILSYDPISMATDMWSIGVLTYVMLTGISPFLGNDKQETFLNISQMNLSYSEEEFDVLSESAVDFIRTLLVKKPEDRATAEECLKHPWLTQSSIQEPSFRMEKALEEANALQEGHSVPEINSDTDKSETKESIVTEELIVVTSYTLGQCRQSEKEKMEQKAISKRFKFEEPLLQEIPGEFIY

[14] = target: SRSF protein kinase 1 (Homo sapiens) (UniProt Q96SB4); assay: Inhibition of SRPK1 (unknown origin) at 1 uM incubated in presence of ATP by Selectscreen kinase assay relative to control
[15] = target: Serine/threonine-protein kinase pim-1 (Homo sapiens) (UniProt P11309); assay: Inhibition of PIM1 (unknown origin) at 1 uM incubated in presence of ATP by Selectscreen kinase assay relative to control
[16] = target: Dual specificity protein kinase CLK1 (Homo sapiens) (UniProt P49759); assay: Inhibition of GST-tagged human recombinant CLK1 (129 to 484 residues) expressed in Escherichia coli at 1 uM using GRSRSRSRSRSRSRSR as substrate incubated in presence of ATP by Selectscreen kinase assay relative to control
[17] = target: Homeodomain-interacting protein kinase 1 (Homo sapiens) (UniProt Q86Z02); assay: Inhibition of HIPK1 (unknown origin) at 1 uM incubated in presence of ATP by Selectscreen kinase assay relative to control
[18] = target: Myosin light chain kinase 2, skeletal/cardiac muscle (Homo sapiens) (UniProt Q9H1R3); assay: Inhibition of MLCK2 (unknown origin) at 1 uM incubated in presence of ATP by Selectscreen kinase assay relative to control
[19] = target: T4, Serine/threonine-protein kinase haspin (Homo sapiens) (UniProt Q8TF76); assay: Inhibition of GSG2 (unknown origin) at 1 uM incubated in presence of ATP by Selectscreen kinase assay relative to control
T4 sequence (whole entry): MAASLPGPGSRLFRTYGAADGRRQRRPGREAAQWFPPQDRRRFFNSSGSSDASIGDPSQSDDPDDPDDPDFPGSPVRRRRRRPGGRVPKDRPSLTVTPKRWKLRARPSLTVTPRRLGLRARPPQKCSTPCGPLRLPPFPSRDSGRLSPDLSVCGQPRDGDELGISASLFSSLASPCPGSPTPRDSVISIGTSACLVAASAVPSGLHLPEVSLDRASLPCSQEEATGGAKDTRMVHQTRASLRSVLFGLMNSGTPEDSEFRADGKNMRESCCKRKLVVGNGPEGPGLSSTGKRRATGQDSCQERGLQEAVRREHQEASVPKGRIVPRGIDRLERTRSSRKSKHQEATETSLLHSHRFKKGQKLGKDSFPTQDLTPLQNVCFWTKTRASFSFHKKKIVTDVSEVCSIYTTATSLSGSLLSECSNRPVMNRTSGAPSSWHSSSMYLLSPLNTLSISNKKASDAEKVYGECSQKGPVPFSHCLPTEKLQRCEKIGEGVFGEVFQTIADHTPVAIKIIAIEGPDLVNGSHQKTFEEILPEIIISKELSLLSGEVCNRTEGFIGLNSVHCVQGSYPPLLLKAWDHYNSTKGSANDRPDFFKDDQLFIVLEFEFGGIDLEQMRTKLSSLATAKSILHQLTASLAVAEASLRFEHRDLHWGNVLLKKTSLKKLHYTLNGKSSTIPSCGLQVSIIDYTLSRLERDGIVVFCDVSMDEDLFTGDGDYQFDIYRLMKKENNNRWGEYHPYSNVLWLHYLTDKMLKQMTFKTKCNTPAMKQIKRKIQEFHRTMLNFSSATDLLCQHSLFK

[20] = target: T5, Dual specificity tyrosine-phosphorylation-regulated kinase 2 (Homo sapiens, UniProt Q92630); assay: Inhibition of Dyrk2 (unknown origin)
T5 sequence (Q92630 whole entry): T2 sequence (whole entry)

[21] = target: T1, Dual specificity tyrosine-phosphorylation-regulated kinase 1A; assay: Inhibition of human Dyrk1A

Sequence of Dual specificity tyrosine-phosphorylation-regulated kinase 1B (Homo sapiens) (Q9Y463 whole entry, looked up): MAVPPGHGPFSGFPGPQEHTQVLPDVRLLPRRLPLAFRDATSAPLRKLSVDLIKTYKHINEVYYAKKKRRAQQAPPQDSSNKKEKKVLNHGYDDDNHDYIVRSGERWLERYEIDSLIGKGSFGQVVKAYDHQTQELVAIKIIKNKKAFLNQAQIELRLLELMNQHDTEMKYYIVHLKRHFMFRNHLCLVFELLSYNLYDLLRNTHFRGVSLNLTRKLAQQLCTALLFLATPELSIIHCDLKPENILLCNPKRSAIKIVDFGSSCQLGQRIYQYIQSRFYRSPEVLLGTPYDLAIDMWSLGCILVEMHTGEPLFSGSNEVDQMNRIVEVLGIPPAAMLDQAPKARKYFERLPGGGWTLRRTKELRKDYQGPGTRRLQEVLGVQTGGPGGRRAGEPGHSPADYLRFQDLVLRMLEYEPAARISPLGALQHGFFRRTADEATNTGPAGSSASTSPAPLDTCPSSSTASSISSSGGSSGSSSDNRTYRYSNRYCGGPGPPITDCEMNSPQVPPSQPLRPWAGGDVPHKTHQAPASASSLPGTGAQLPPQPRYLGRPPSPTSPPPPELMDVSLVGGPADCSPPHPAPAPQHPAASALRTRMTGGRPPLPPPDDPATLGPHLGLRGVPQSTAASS
Sequence of Casein kinase I isoform delta (Homo sapiens) (P48730 whole entry, looked up, the tested form may be a part, canonical isoform): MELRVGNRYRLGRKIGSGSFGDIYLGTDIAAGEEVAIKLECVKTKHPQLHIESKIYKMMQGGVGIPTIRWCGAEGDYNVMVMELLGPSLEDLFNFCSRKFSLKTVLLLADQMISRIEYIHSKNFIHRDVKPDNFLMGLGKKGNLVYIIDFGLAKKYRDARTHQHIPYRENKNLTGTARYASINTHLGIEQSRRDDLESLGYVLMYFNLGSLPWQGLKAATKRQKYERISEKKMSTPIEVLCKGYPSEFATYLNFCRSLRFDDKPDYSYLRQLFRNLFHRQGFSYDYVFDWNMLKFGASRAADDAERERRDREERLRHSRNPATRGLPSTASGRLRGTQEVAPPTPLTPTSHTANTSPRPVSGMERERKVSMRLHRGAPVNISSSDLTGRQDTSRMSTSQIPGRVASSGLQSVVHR
Sequence of Glycogen synthase kinase-3 beta (Homo sapiens) (P49841 whole entry, looked up): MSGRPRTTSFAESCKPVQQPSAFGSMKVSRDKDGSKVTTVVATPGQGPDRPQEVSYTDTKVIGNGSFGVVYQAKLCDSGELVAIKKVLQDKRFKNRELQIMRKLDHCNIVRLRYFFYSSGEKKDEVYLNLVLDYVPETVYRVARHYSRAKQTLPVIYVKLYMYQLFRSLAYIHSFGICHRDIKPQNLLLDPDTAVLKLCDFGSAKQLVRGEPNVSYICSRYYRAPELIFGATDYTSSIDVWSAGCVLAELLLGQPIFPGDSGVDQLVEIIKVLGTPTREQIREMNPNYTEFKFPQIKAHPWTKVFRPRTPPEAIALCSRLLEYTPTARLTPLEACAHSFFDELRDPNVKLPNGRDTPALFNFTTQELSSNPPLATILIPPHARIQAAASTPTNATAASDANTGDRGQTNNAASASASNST
Sequence of Cyclin-dependent kinase 5/CDK5 activator 1 (Homo sapiens) (Q00535 whole entry): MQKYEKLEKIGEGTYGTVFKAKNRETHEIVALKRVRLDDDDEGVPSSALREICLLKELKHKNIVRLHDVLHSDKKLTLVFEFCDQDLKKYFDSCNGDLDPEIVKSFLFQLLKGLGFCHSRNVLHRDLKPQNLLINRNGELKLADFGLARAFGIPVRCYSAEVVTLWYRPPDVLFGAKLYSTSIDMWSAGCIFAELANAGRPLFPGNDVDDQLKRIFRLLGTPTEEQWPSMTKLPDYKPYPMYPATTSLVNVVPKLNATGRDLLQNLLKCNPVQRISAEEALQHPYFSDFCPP
Sequence of Cyclin-dependent kinase 5/CDK5 activator 1 (Homo sapiens) (Q15078 99-307 partner limits assumed): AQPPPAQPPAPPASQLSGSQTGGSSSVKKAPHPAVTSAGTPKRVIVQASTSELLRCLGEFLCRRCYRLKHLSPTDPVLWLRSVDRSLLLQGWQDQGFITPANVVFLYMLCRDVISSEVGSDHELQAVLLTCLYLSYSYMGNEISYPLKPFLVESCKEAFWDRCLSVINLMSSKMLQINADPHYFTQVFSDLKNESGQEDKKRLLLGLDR
Sequence of Serine/threonine-protein kinase pim-1 (Homo sapiens) (P11309 whole entry, looked up, the tested form may be a part): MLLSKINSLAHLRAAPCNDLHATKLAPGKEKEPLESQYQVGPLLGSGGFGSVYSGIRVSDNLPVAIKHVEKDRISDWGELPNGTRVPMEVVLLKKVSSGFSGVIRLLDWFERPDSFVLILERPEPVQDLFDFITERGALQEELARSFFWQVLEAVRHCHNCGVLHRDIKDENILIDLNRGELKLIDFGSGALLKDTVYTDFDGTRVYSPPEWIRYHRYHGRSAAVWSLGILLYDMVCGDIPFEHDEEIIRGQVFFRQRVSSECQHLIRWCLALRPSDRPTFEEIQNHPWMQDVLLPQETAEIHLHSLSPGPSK
Sequence of Dual specificity protein kinase CLK1 (Homo sapiens) (P49759 whole entry, looked up, the tested form may be a part): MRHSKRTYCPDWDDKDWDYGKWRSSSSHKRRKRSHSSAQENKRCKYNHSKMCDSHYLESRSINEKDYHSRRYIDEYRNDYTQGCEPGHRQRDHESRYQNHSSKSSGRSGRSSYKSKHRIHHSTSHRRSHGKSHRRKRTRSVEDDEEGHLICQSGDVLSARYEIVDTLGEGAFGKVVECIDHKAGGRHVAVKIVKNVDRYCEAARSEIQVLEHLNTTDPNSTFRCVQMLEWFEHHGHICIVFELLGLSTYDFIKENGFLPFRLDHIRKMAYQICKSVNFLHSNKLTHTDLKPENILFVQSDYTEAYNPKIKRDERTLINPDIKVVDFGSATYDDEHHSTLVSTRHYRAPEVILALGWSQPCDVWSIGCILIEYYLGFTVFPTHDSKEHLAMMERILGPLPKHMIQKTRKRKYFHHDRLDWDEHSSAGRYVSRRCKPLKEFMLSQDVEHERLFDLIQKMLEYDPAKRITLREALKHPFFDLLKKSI
Sequence of SRSF protein kinase 1 (Homo sapiens) (Q96SB4 whole entry): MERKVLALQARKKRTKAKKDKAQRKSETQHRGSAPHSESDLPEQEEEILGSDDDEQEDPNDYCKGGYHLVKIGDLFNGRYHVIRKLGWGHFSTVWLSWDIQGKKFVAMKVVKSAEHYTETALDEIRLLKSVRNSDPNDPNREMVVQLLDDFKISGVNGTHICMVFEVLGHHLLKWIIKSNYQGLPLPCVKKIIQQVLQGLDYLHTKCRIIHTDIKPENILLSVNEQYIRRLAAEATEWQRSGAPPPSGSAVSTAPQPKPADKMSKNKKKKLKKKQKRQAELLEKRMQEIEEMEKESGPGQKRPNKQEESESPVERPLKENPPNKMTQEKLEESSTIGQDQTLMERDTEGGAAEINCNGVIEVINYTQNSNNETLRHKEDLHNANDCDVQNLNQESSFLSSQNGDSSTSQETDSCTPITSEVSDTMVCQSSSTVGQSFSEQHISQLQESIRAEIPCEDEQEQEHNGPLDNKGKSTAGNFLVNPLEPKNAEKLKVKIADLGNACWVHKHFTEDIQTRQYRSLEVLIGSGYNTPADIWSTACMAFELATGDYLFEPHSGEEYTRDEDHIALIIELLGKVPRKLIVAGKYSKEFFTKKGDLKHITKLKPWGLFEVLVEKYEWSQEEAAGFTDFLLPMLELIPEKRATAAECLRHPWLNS
Sequence of Myosin light chain kinase 2, skeletal/cardiac muscle (Homo sapiens) (Q9H1R3 whole entry): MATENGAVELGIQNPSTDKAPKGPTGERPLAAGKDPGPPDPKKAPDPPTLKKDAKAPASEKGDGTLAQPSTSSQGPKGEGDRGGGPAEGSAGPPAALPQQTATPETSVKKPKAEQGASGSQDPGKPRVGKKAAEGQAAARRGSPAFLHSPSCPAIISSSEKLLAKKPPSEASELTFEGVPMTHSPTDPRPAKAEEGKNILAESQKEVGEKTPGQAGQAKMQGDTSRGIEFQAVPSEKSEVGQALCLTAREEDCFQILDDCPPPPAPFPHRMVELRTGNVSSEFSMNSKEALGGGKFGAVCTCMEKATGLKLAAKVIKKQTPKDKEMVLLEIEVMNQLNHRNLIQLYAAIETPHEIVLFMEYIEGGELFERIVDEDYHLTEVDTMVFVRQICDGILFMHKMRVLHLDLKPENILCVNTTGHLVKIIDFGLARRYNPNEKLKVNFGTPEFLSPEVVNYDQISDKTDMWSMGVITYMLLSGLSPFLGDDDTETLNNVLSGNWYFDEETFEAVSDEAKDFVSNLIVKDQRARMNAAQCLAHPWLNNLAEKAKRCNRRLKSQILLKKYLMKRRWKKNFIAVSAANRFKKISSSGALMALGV

SMILES: O=C(Nc1ccc(NC(=O)c2cccc(O)c2)cc1)Nc1nc2ccc(O)cc2s1
- inhibition [1]: 46%
- Papp at 16 h [2]: 6.5 ×10⁻⁶ cm/s
- Activity (SH-SY5Y [3]): Active

SMILES: O=C(Nc1ccc(NC(=O)c2cc(F)cc(F)c2)cc1)Nc1nc2ccc(O)cc2s1
- inhibition [1]: 11%

SMILES: O=C(Nc1ccc(NC(=O)c2cccc(C(F)(F)F)c2)cc1)Nc1nc2ccc(O)cc2s1
- inhibition [1]: 14%

SMILES: O=C(Nc1ccc(NC(=O)c2c(F)cc(F)cc2F)cc1)Nc1nc2ccc(O)cc2s1
- inhibition [1]: 17%

SMILES: CCn1cc(C(=O)O)c(=O)c2cc(F)c(N3CCNCC3)cc21 [NORFLOXACIN]
- Papp at 16 h [2]: 1.1 ×10⁻⁶ cm/s

SMILES: O=C(Nc1ccc(NC(=O)C2CCNCC2)cc1)Nc1nc2ccc(O)cc2s1
- inhibition [1]: 51%
- Activity (SH-SY5Y [4]): Active
- Papp at 16 h [2]: 4.4 ×10⁻⁶ cm/s
- IC50 [5]: 0.177 µM
- inhibition [6]: 69%

SMILES: O=C(Cc1ccccc1)Nc1ccc(NC(=O)Nc2nc3ccc(O)cc3s2)cc1
- IC50 [7]: 0.69 µM
- inhibition [8]: 6%
- Activity [9]: Active
- inhibition [10]: 6%
- inhibition [11]: 8%
- inhibition [12]: 20%
- inhibition [13]: 28%
- Papp at 16 h [2]: 7.9 ×10⁻⁶ cm/s
- IC50 [5]: 0.02 µM
- inhibition [14]: 4%
- inhibition [15]: 3%
- inhibition [6]: 75%
- inhibition [16]: 21%

SMILES: O=C(Nc1ccc(NC(=O)c2ccc(F)cc2)cc1)Nc1nc2ccc(O)cc2s1
- inhibition [1]: 13%

SMILES: O=C(Nc1ccc(NC(=O)c2ccccc2F)cc1)Nc1nc2ccc(O)cc2s1
- inhibition [1]: 17%

SMILES: Cc1cccc(C(=O)Nc2ccc(NC(=O)Nc3nc4ccc(O)cc4s3)cc2)c1
- inhibition [1]: 30%

SMILES: O=C(Nc1ccc(NC(=O)c2ccccc2)cc1)Nc1nc2ccc(O)cc2s1
- inhibition [1]: 34%
- IC50 [5]: 0.154 µM
- inhibition [6]: 65%

SMILES: CC(=O)Nc1ccc(NC(=O)Nc2nc3ccc(O)cc3s2)cc1
- inhibition [1]: 65%

SMILES: O=C(Nc1ccc(NC(=O)c2cc(Cl)cc(Cl)c2)cc1)Nc1nc2ccc(O)cc2s1
- inhibition [1]: 11%

SMILES: CN1CCN(C(=O)c2ccc(NC(=O)Nc3nc4ccc(O)cc4s3)cc2)CC1
- IC50 [20]: > 5 µM
- IC50 [21]: 0.093 µM

SMILES: O=C(Nc1ccc(NC(=O)c2cc(F)c(F)c(F)c2)cc1)Nc1nc2ccc(O)cc2s1
- inhibition [1]: 10%

SMILES: COc1ccc2c(c1)[nH]c1c(C)nccc12
- Activity (SH-SY5Y [4]): Active

Now from value to compound:

- inhibition [1]: 36%
SMILES: N#Cc1cccc(C(=O)Nc2ccc(NC(=O)Nc3nc4ccc(O)cc4s3)cc2)c1

- inhibition [1]: 23%
SMILES: N#Cc1ccc(C(=O)Nc2ccc(NC(=O)Nc3nc4ccc(O)cc4s3)cc2)cc1

- inhibition [1]: 6%
SMILES: O=C(Nc1ccc(NC(=O)c2ccc(Cl)cc2)cc1)Nc1nc2ccc(O)cc2s1

- inhibition [1]: 9%
SMILES: O=C(Nc1ccc(NS(=O)(=O)c2cc(F)cc(F)c2)cc1)Nc1nc2ccc(O)cc2s1

- inhibition [1]: 26%
SMILES: O=C(Nc1ccc(NC(=O)C2CCC2)cc1)Nc1nc2ccc(O)cc2s1

- inhibition [1]: 19%
SMILES: O=C(Nc1ccc(NS(=O)(=O)c2ccccc2F)cc1)Nc1nc2ccc(O)cc2s1

- inhibition [1]: 25%
SMILES: O=C(Nc1ccc(NC(=O)C2CCCCC2)cc1)Nc1nc2ccc(O)cc2s1

- inhibition [1]: 13%
SMILES: O=C(Nc1ccc(NC(=O)c2cccc(Br)c2)cc1)Nc1nc2ccc(O)cc2s1

- inhibition [1]: 9%
SMILES: O=C(Nc1ccc(NC(=O)c2cccc(F)c2)cc1)Nc1nc2ccc(O)cc2s1

- inhibition [1]: 18%
SMILES: O=C(Nc1ccc(NC(=O)c2cccc(Cl)c2)cc1)Nc1nc2ccc(O)cc2s1

- inhibition [1]: 18%
SMILES: O=C(Nc1ccc(NS(=O)(=O)c2ccccc2)cc1)Nc1nc2ccc(O)cc2s1

- inhibition [8]: 15%
- inhibition [1]: 15%
- inhibition [17]: 2%
- inhibition [18]: 18%
- inhibition [10]: 5%
- inhibition [11]: 15%
- inhibition [12]: 27%
- inhibition [19]: 3%
- inhibition [13]: 29%
- IC50 [5]: 0.045 µM
- inhibition [14]: 4%
- inhibition [15]: 3%
- inhibition [6]: 79%
- inhibition [16]: 7%
SMILES: O=C(Nc1ccc(NS(=O)(=O)c2cccc(F)c2)cc1)Nc1nc2ccc(O)cc2s1

- inhibition [1]: 10%
SMILES: O=C(Nc1cccc(NS(=O)(=O)c2cccc(F)c2)c1)Nc1nc2ccc(O)cc2s1

- inhibition [1]: 29%
- IC50 [5]: 0.159 µM
- inhibition [6]: 62%
SMILES: O=C(Nc1ccc(NC(=O)C2CC2)cc1)Nc1nc2ccc(O)cc2s1
